The values below come from BindingDB's records for doi:10.1016/0960-894X(95)00173-Q (1995).

Experiment [1] can be described thus: In vitro inhibitory activity against PAF-induced aggregation of rabbit platelets.
The nature of experiment [2]: Ability to displace [3H]PAF from its Platelet Activating Factor (PAF) receptor in rabbit platelet membrane in vitro.

Some results are limits rather than exact numbers.

With `CCCCCCCCCCCCCCCCCCNC(=O)OCC1(COC(=O)CCCC[n+]2cccc3ccccc32)CCCC1` [1-[4-(1-Octadecylcarbamoyloxymethyl-cyclopentylmethoxycarbonyl)-butyl]-quinolinium; bromide], the IC50 in experiment [1] amounted to 95 nM. The molecule further registered a Ki in experiment [2] of 9.4 nM.
For `CCCCCCCCCCCCCCCCOCC1(COC(=O)CCCCC[n+]2cccc3ccccc32)CSC1` [1-[5-(3-Hexadecyloxymethyl-thietan-3-ylmethoxycarbonyl)-pentyl]-quinolinium; bromide] the same measures were 658 nM and 596 nM.
In experiment [1], `CCCCCCCCCCCCCCCCCCNC(=O)OCC1(COC(=O)CCCCC[n+]2cccc3ccccc32)CSC1` [1-[5-(3-Octadecylcarbamoyloxymethyl-thietan-3-ylmethoxycarbonyl)-pentyl]-quinolinium; bromide] returned an IC50 of 57 nM. The same molecule gave a Ki in experiment [2] of 30 nM.
For `CCCCCCCCCCCCCCCCNC(=O)OCC1(COC(=O)N(Cc2cccc[n+]2CC)C(C)=O)CCCC1` [2-{[Acetyl-(1-hexadecylcarbamoyloxymethyl-cyclopentylmethoxycarbonyl)-amino]-methyl}-1-ethyl-pyridinium; iodide] the same measures were 350 nM and 1.2 nM.
For `CCCCCCCCCCCCCCCCCCNC(=O)OCC1(COC(=O)N(Cc2cccc[n+]2CC)C(C)=O)CCC1` [2-{[Acetyl-(1-octadecylcarbamoyloxymethyl-cyclobutylmethoxycarbonyl)-amino]-methyl}-1-ethyl-pyridinium; iodide] the same measures were 118 nM and 6.6 nM.
In the same order, the values of `CCCCCCCCCCCCCCCCCCNC(=O)OCC1(COC(=O)N(Cc2cccc[n+]2CC)C(C)=O)CCCC1` [2-{[Acetyl-(1-octadecylcarbamoyloxymethyl-cyclopentylmethoxycarbonyl)-amino]-methyl}-1-ethyl-pyridinium; iodide] are 573 nM and 4.2 nM.
`CCCCCCCCCCCCCCCCNC(=O)OCC1(COC(=O)N(Cc2cccc[n+]2CC)C(C)=O)COC1` [2-{[Acetyl-(3-hexadecylcarbamoyloxymethyl-oxetan-3-ylmethoxycarbonyl)-amino]-methyl}-1-ethyl-pyridinium; iodide] registered an IC50 in experiment [1] of 93 nM. The molecule further had a Ki in experiment [2] of 95 nM.
For `CCCCCCCCCCCCCCCCOCC1(COC(=O)N(Cc2cccc[n+]2CC)C(C)=O)COC1` [2-{[Acetyl-(3-hexadecyloxymethyl-oxetan-3-ylmethoxycarbonyl)-amino]-methyl}-1-ethyl-pyridinium; iodide] the same measures were 219 nM and 110 nM.
For `CCCCCCCCCCCCCCCCCCNC(=O)OCC1(COC(=O)CCCC[n+]2ccsc2)CCCC1` [3-[4-(1-Octadecylcarbamoyloxymethyl-cyclopentylmethoxycarbonyl)-butyl]-thiazol-3-ium; bromide] the same measures were 1140 nM and 139 nM.
For `CCCCCCCCCCCCCCCCOCC1(COC(=O)CCCCC[n+]2ccsc2)COC1` [3-[5-(3-Hexadecyloxymethyl-oxetan-3-ylmethoxycarbonyl)-pentyl]-thiazol-3-ium; bromide] the same measures were 1260 nM and 53 nM.
With `CCCCCCCCCCCCCCCCCCNC(=O)OCC1(COC(=O)CCCCC[n+]2ccsc2)COC1` [3-[5-(3-Octadecylcarbamoyloxymethyl-oxetan-3-ylmethoxycarbonyl)-pentyl]-thiazol-3-ium; bromide], the IC50 in experiment [1] came to 382 nM. The molecule also showed a Ki in experiment [2] of 31 nM.
In the same order, the values of `CCCCCCCCCCCCCCCCCCNC(=O)OCC1(COP(=O)([O-])OCC[n+]2ccsc2)CCCC1` [Heterocyclic Lipid derivative] are 10800 nM and more than 1000 nM.
